Assay results reported in ChEMBL document CHEMBL1123524, “Aminoglycoside antibiotics. 6. Chemical reactions of aminoglycosides with disodium carbenicillin” (1986).
Converted amounts (≈) assume the structure as drawn.

Experiments:
Escherichia coli [1] = assay: Antibacterial activity expressed as MIC value was determined on Escherichia coli A-20697 organism; type: functional
Pseudomonas aeruginosa [2] = assay: Antibacterial activity expressed as MIC value was determined on Pseudomonas aeruginosa A-21509 organism; type: functional
Staphylococcus aureus [3] = assay: Antibacterial activity expressed as MIC value was determined on Staphylococcus aureus A-9537 organism; type: functional
Escherichia coli [4] = assay: Antibacterial activity expressed as MIC value was determined on Escherichia coli A-22045 organism; type: functional
Staphylococcus aureus [5] = assay: Antibacterial activity expressed as MIC value was determined on; type: functional, organism-based
Proteus mirabilis = assay: Antibacterial activity expressed as MIC value was determined on Proteus mirabilis A-9900 organism; type: functional
Providencia rettgeri [6] = assay: Antibacterial activity expressed as MIC value was determined on Proteus rettgeri A-21207 organism; type: functional
Escherichia coli [7] = assay: Antibacterial activity expressed as MIC value was determined on Escherichia coli A-20895 organism; type: functional
Pseudomonas aeruginosa [8] = assay: Antibacterial activity expressed as MIC value was determined on Pseudomonas aeruginosa A-20601; type: functional, organism-based
Staphylococcus aureus [9] = assay: Antibacterial activity expressed as MIC value was determined on Staphylococcus aureus A-22231 organism; type: functional
Pseudomonas aeruginosa [10] = assay: Antibacterial activity expressed as MIC value was determined on Pseudomonas aeruginosa A-9834A organismA-; type: functional, organism-based
Pseudomonas aeruginosa [11] = assay: Antibacterial activity expressed as MIC value was determined on Pseudomonas aeruginosa A-20741 organism; type: functional
Pseudomonas aeruginosa [12] = assay: Antibacterial activity expressed as MIC value was determined on Pseudomonas aeruginosa A-21294 organism; type: functional
Staphylococcus aureus [13] = assay: Antibacterial activity expressed as MIC value was determined on Staphylococcus aureus A-22210 organism; type: functional
Staphylococcus aureus [14] = assay: Antibacterial activity expressed as MIC value was determined on Staphylococcus aureus A-21978 organism; type: functional
Klebsiella pneumoniae = assay: Antibacterial activity expressed as MIC value was determined on Klebsiella pneumonia A-20468 organism; type: functional
Escherichia coli [15] = assay: Antibacterial activity expressed as MIC value was determined on Escherichia coli A-20683 organism; type: functional
Providencia stuartii [16] = assay: Antibacterial activity expressed as MIC value was determined on Proteus stuartii A-21210 organism; type: functional
Escherichia coli [17] = assay: Antibacterial activity expressed as MIC value was determined on Escherichia coli A-9632 organism; type: functional
Serratia marcescens = assay: Antibacterial activity expressed as MIC value was determined on Serratia marcescens A-20019 organism; type: functional
Pseudomonas aeruginosa [18] = assay: Antibacterial activity expressed as MIC value was determined on Pseudomonas aeruginosa A-20897 organism; type: functional
Escherichia coli [19] = assay: Antibacterial activity expressed as MIC value was determined on Escherichia coli A-20732 organism; type: functional
Providencia rettgeri [20] = assay: (§1) Antibacterial activity expressed as MIC value was determined on Proteus rettgeri A-9637 organism; type: functional
Escherichia coli [21] = assay: Antibacterial activity expressed as MIC value was determined on Escherichia coli A-21218 organism; type: functional
Providencia stuartii [22] = assay: Antibacterial activity expressed as MIC value was determined on Proteus stuartii A-20894 organism; type: functional
Pseudomonas aeruginosa [23] = assay: Antibacterial activity expressed as MIC value was determined on Pseudomonas aeruginosa A-20717 organism; type: functional
Staphylococcus aureus [24] = assay: Antibacterial activity expressed as MIC value was determined on Staphylococcus aureus A-20240 organism; type: functional
Escherichia coli [25] = assay: Antibacterial activity expressed as MIC value was determined on Escherichia coli A-22356 organism; type: functional
Pseudomonas aeruginosa [26] = assay: Antibacterial activity expressed as MIC value was determined on Pseudomonas aeruginosa A-22233 organism; type: functional
Pseudomonas aeruginosa [27] = assay: Antibacterial activity expressed as MIC value was determined on Pseudomonas aeruginosa A-20653 organism; type: functional
Pseudomonas aeruginosa [28] = assay: Antibacterial activity expressed as MIC value was determined on Pseudomonas aeruginosa A-21508 organism; type: functional
Staphylococcus aureus [29] = assay: Antibacterial activity expressed as MIC value was determined on Staphylococcus aureus A-22058 organism; type: functional
Pseudomonas aeruginosa [30] = assay: Antibacterial activity expressed as MIC value was determined on Pseudomonas aeruginosa A-9834A organism; type: functional
Pseudomonas aeruginosa [31] = assay: Antibacterial activity expressed as MIC value was determined on Pseudomonas aeruginosa A-20601 organism; type: functional
Enterobacter cloacae [32] = assay: Antibacterial activity expressed as MIC value was determined on Enterobacter cloacae A-21136 organism; type: functional
Enterobacter cloacae [33] = assay: Antibacterial activity expressed as MIC value was determined on Enterobacter cloacae A-9656 organism; type: functional
Escherichia coli [34] = assay: Antibacterial activity expressed as MIC value was determined on Escherichia coli A-20665 organism; type: functional
Enterobacter cloacae [35] = assay: Antibacterial activity expressed as MIC value was determined on Enterobacter cloacae A-20364 organism; type: functional
Providencia rettgeri [36] = assay: as §1; type: functional; remark: listed apart in the source
Enterobacter cloacae [37] = assay: Antibacterial activity expressed as MIC value was determined on Enterobacter cloacae A-21006 organism; type: functional
Providencia rettgeri [38] = assay: ntibacterial activity expressed as MIC value was determined on Proteus rettgeri A-21207 organism; type: functional
Escherichia coli [39] = assay: Antibacterial activity expressed as MIC value was determined on Escherichia coli A-20895; type: functional

## GENTAMICIN
Escherichia coli [1]
  MIC: 0.25 µg/mL
Pseudomonas aeruginosa [2]
  MIC: 16 µg/mL
Staphylococcus aureus [3]
  MIC: 0.06 µg/mL
Escherichia coli [4]
  MIC: 63 µg/mL
Staphylococcus aureus [5]
  MIC: 0.13 µg/mL
Proteus mirabilis
  MIC: 1 µg/mL
Providencia rettgeri [6]
  MIC: 8 µg/mL
Escherichia coli [7]
  MIC: 32 µg/mL
Pseudomonas aeruginosa [8]
  MIC: > 125 µg/mL
Staphylococcus aureus [9]
  MIC: 0.13 µg/mL
Pseudomonas aeruginosa [10]
  MIC: 0.25 µg/mL
Pseudomonas aeruginosa [11]
  MIC: > 125 µg/mL
Pseudomonas aeruginosa [12]
  MIC: 1 µg/mL
Staphylococcus aureus [13]
  MIC: 32 µg/mL
Staphylococcus aureus [14]
  MIC: 0.25 µg/mL
Klebsiella pneumoniae
  MIC: 0.25 µg/mL
Escherichia coli [15]
  MIC: 32 µg/mL
Providencia stuartii [16]
  MIC: 1 µg/mL
Escherichia coli [17]
  MIC: 0.25 µg/mL
Serratia marcescens
  MIC: 1 µg/mL
Pseudomonas aeruginosa [18]
  MIC: > 125 µg/mL
Escherichia coli [19]
  MIC: 16 µg/mL
Providencia rettgeri [20]
  MIC: 0.06 µg/mL
Escherichia coli [21]
  MIC: 0.25 µg/mL
Providencia stuartii [22]
  MIC: 125 µg/mL
Pseudomonas aeruginosa [23]
  MIC: 4 µg/mL
Staphylococcus aureus [24]
  MIC: 0.13 µg/mL

## CC1(C)S[C@@H]2[C@H](NC(=O)C(C(=O)O)c3ccccc3)C(=O)N2[C@H]1C(=O)O.NC[C@H]1O[C@H](O[C@H]2[C@H](O)[C@@H](O[C@H]3O[C@H](CO)[C@@H](O)[C@H](N)[C@H]3O)[C@H](N)C[C@@H]2N)[C@H](N)C[C@@H]1O
Escherichia coli [1]
  MIC: > 250 µg/mL
Escherichia coli [25]
  MIC: > 250 µg/mL
Pseudomonas aeruginosa [2]
  MIC: > 250 µg/mL
Staphylococcus aureus [3]
  MIC: 63 µg/mL
Pseudomonas aeruginosa [26]
  MIC: > 250 µg/mL
Escherichia coli [4]
  MIC: > 250 µg/mL
Proteus mirabilis
  MIC: > 250 µg/mL
Providencia rettgeri [6]
  MIC: > 250 µg/mL
Escherichia coli [7]
  MIC: > 250 µg/mL
Pseudomonas aeruginosa [27]
  MIC: 250 µg/mL
Pseudomonas aeruginosa [28]
  MIC: 250 µg/mL
Staphylococcus aureus [29]
  MIC: > 250 µg/mL
Staphylococcus aureus [9]
  MIC: 63 µg/mL
Pseudomonas aeruginosa [11]
  MIC: > 250 µg/mL
Pseudomonas aeruginosa [12]
  MIC: > 250 µg/mL
Pseudomonas aeruginosa [30]
  MIC: 250 µg/mL
Pseudomonas aeruginosa [31]
  MIC: > 250 µg/mL
Staphylococcus aureus [13]
  MIC: > 250 µg/mL
Enterobacter cloacae [32]
  MIC: > 250 µg/mL
Staphylococcus aureus [14]
  MIC: > 250 µg/mL
Enterobacter cloacae [33]
  MIC: > 250 µg/mL
Escherichia coli [34]
  MIC: > 250 µg/mL
Klebsiella pneumoniae
  MIC: > 250 µg/mL
Escherichia coli [15]
  MIC: > 250 µg/mL
Providencia stuartii [16]
  MIC: > 250 µg/mL
Escherichia coli [17]
  MIC: > 250 µg/mL
Serratia marcescens
  MIC: 250 µg/mL
Pseudomonas aeruginosa [18]
  MIC: > 250 µg/mL
Enterobacter cloacae [35]
  MIC: > 250 µg/mL
Escherichia coli [19]
  MIC: > 250 µg/mL
Escherichia coli [21]
  MIC: > 250 µg/mL
Providencia stuartii [22]
  MIC: > 250 µg/mL
Providencia rettgeri [36]
  MIC: 125 µg/mL
Pseudomonas aeruginosa [23]
  MIC: > 250 µg/mL
Enterobacter cloacae [37]
  MIC: > 250 µg/mL
Staphylococcus aureus [24]
  MIC: > 250 µg/mL

## CC1(C)S[C@@H]2[C@H](NC(=O)C(C(=O)O)c3ccccc3)C(=O)N2[C@H]1C(=O)O (stereo not given in full) [CARBENICILLIN]
Escherichia coli [1]
  MIC: 32 µg/mL (≈ 84.6 µM)
Providencia rettgeri [38]
  MIC: 16 µg/mL (≈ 42.3 µM)
Escherichia coli [25]
  MIC: 4 µg/mL (≈ 10.6 µM)
Pseudomonas aeruginosa [2]
  MIC: > 125 µg/mL
Staphylococcus aureus [3]
  MIC: 1 µg/mL (≈ 2.64 µM)
Pseudomonas aeruginosa [26]
  MIC: > 125 µg/mL
Escherichia coli [4]
  MIC: 32 µg/mL (≈ 84.6 µM)
Proteus mirabilis
  MIC: 0.5 µg/mL (≈ 1.32 µM)
Pseudomonas aeruginosa [27]
  MIC: 125 µg/mL (≈ 330 µM)
Pseudomonas aeruginosa [28]
  MIC: > 125 µg/mL
Staphylococcus aureus [29]
  MIC: 4 µg/mL (≈ 10.6 µM)
Staphylococcus aureus [9]
  MIC: 2 µg/mL (≈ 5.29 µM)
Pseudomonas aeruginosa [11]
  MIC: 125 µg/mL (≈ 330 µM)
Pseudomonas aeruginosa [12]
  MIC: > 125 µg/mL
Pseudomonas aeruginosa [30]
  MIC: 32 µg/mL (≈ 84.6 µM)
Pseudomonas aeruginosa [31]
  MIC: 125 µg/mL (≈ 330 µM)
Staphylococcus aureus [13]
  MIC: > 125 µg/mL
Enterobacter cloacae [32]
  MIC: > 125 µg/mL
Staphylococcus aureus [14]
  MIC: > 125 µg/mL
Enterobacter cloacae [33]
  MIC: 32 µg/mL (≈ 84.6 µM)
Escherichia coli [34]
  MIC: 8 µg/mL (≈ 21.1 µM)
Escherichia coli [39]
  MIC: 63 µg/mL (≈ 166 µM)
Klebsiella pneumoniae
  MIC: > 125 µg/mL
Escherichia coli [15]
  MIC: > 125 µg/mL
Providencia stuartii [16]
  MIC: 1 µg/mL (≈ 2.64 µM)
Escherichia coli [17]
  MIC: 8 µg/mL (≈ 21.1 µM)
Serratia marcescens
  MIC: 16 µg/mL (≈ 42.3 µM)
Pseudomonas aeruginosa [18]
  MIC: > 125 µg/mL
Enterobacter cloacae [35]
  MIC: > 125 µg/mL
Escherichia coli [19]
  MIC: > 125 µg/mL
Escherichia coli [21]
  MIC: 32 µg/mL (≈ 84.6 µM)
Providencia stuartii [22]
  MIC: 8 µg/mL (≈ 21.1 µM)
Providencia rettgeri [36]
  MIC: 0.5 µg/mL (≈ 1.32 µM)
Pseudomonas aeruginosa [23]
  MIC: > 125 µg/mL
Enterobacter cloacae [37]
  MIC: > 125 µg/mL
Staphylococcus aureus [24]
  MIC: 8 µg/mL (≈ 21.1 µM)

## CC1(C)S[C@@H]2[C@H](NC(=O)C(C(=O)O)c3ccccc3)C(=O)N2[C@H]1C(=O)O.NC[C@H]1O[C@H](O[C@H]2[C@H](O)[C@@H](O[C@H]3O[C@H](CO)[C@@H](O)[C@H](N)[C@H]3O)[C@H](N)C[C@@H]2N)[C@H](O)[C@@H](O)[C@@H]1O
Escherichia coli [1]
  MIC: > 250 µg/mL
Escherichia coli [25]
  MIC: > 250 µg/mL
Pseudomonas aeruginosa [2]
  MIC: > 250 µg/mL
Staphylococcus aureus [3]
  MIC: > 250 µg/mL
Pseudomonas aeruginosa [26]
  MIC: > 250 µg/mL
Escherichia coli [4]
  MIC: > 250 µg/mL
Proteus mirabilis
  MIC: > 250 µg/mL
Providencia rettgeri [6]
  MIC: > 250 µg/mL
Escherichia coli [7]
  MIC: > 250 µg/mL
Pseudomonas aeruginosa [27]
  MIC: > 250 µg/mL
Pseudomonas aeruginosa [28]
  MIC: > 250 µg/mL
Staphylococcus aureus [29]
  MIC: > 250 µg/mL
Staphylococcus aureus [9]
  MIC: > 250 µg/mL
Pseudomonas aeruginosa [11]
  MIC: > 250 µg/mL
Pseudomonas aeruginosa [12]
  MIC: > 250 µg/mL
Pseudomonas aeruginosa [30]
  MIC: > 250 µg/mL
Pseudomonas aeruginosa [31]
  MIC: > 250 µg/mL
Staphylococcus aureus [13]
  MIC: > 250 µg/mL
Enterobacter cloacae [32]
  MIC: > 250 µg/mL
Staphylococcus aureus [14]
  MIC: > 250 µg/mL
Enterobacter cloacae [33]
  MIC: > 250 µg/mL
Escherichia coli [34]
  MIC: > 250 µg/mL
Klebsiella pneumoniae
  MIC: > 250 µg/mL
Escherichia coli [15]
  MIC: > 250 µg/mL
Providencia stuartii [16]
  MIC: > 250 µg/mL
Escherichia coli [17]
  MIC: > 250 µg/mL
Serratia marcescens
  MIC: > 250 µg/mL
Pseudomonas aeruginosa [18]
  MIC: > 250 µg/mL
Enterobacter cloacae [35]
  MIC: > 250 µg/mL
Escherichia coli [19]
  MIC: > 250 µg/mL
Escherichia coli [21]
  MIC: > 250 µg/mL
Providencia stuartii [22]
  MIC: > 250 µg/mL
Providencia rettgeri [36]
  MIC: 250 µg/mL
Pseudomonas aeruginosa [23]
  MIC: > 250 µg/mL
Enterobacter cloacae [37]
  MIC: > 250 µg/mL
Staphylococcus aureus [24]
  MIC: > 250 µg/mL
